# Results as given in ChEMBL document CHEMBL3994622, “Design and synthesis of new RAF kinase-inhibiting antiproliferative quinoline derivatives. Part 2: Diarylurea derivatives” (Eur J Med Chem, 2017).
# What was measured:
# MDA-MB-435 = assay: Growth inhibition of human MDA-MB-435 cells incubated for 48 hrs by sulforhodamine B assay; assay type: functional; settings: MDA-MB-435, 48 h; for CC50: read-out: LC50 (the source's name)
# A549 = assay: Growth inhibition of human A549/ATCC cells incubated for 48 hrs by sulforhodamine B assay; assay type: functional; settings: A549, 48 h; for CC50: read-out: LC50 (the source's name)
# HCT-116 = assay: Growth inhibition of human HCT116 cells incubated for 48 hrs by sulforhodamine B assay; assay type: functional; settings: HCT-116, 48 h
# KM12 = assay: Growth inhibition of human KM12 cells assessed as cell growth at 0.03 uM incubated for 48 hrs by sulforhodamine B assay relative to control; assay type: functional; settings: KM12, 48 h, read-out: Activity
# ACHN = assay: Growth inhibition of human ACHN cells assessed as cell growth at 0.3 uM incubated for 48 hrs by sulforhodamine B assay relative to control; assay type: functional; settings: read-out: Activity
# TK-10 = assay: Growth inhibition of human TK10 cells incubated for 48 hrs by sulforhodamine B assay; assay type: functional; settings: TK-10, 48 h; for CC50: read-out: LC50 (the source's name)
# MDA-MB-231 = assay: Growth inhibition of human MDA-MB-231 cells incubated for 48 hrs by sulforhodamine B assay; assay type: functional; settings: MDA-MB-231, 48 h; for CC50: read-out: LC50 (the source's name)
# SK-OV-3 [1] = assay: Growth inhibition of human SKOV3 cells incubated for 48 hrs by sulforhodamine B assay; assay type: functional; settings: SK-OV-3, 48 h; for CC50: read-out: LC50 (the source's name)
# HOP-92 [2] = assay: Growth inhibition of human HOP92 cells assessed as cell growth at 30 uM incubated for 48 hrs by sulforhodamine B assay relative to control; assay type: functional; settings: HOP-92, 48 h, read-out: Activity
# SK-OV-3 [3] = assay: Growth inhibition of human SKOV3 cells assessed as cell growth at 30 uM incubated for 48 hrs by sulforhodamine B assay relative to control; assay type: functional; settings: SK-OV-3, 48 h, read-out: Activity
# SK-MEL-2 = assay: Growth inhibition of human SK-MEL-2 cells assessed as cell growth at 0.03 uM incubated for 48 hrs by sulforhodamine B assay relative to control; assay type: functional; settings: SK-MEL-2, 48 h, read-out: Activity
# SF-539 = assay: Growth inhibition of human SF539 cells incubated for 48 hrs by sulforhodamine B assay; assay type: functional; settings: SF-539, 48 h; for CC50: read-out: LC50 (the source's name)
# HOP-92 [4] = assay: Growth inhibition of human HOP92 cells incubated for 48 hrs by sulforhodamine B assay; assay type: functional; settings: HOP-92, 48 h
# SF-295 = assay: Growth inhibition of human SF295 cells incubated for 48 hrs by sulforhodamine B assay; assay type: functional; settings: SF-295, 48 h; for CC50: read-out: LC50 (the source's name)
# K562 = assay: Growth inhibition of human K562 cells incubated for 48 hrs by sulforhodamine B assay; assay type: functional; settings: K562, 48 h
# NCI-H522 = assay: Growth inhibition of human NCI-H522 cells incubated for 48 hrs by sulforhodamine B assay; assay type: functional; settings: NCI-H522, 48 h; for CC50: read-out: LC50 (the source's name)
# U-251 = assay: Growth inhibition of human U251 cells incubated for 48 hrs by sulforhodamine B assay; assay type: functional; settings: U-251, 48 h; for CC50: read-out: LC50 (the source's name)
# MCF7 = assay: Growth inhibition of human MCF7 cells incubated for 48 hrs by sulforhodamine B assay; assay type: functional; settings: MCF7, 48 h; for CC50: read-out: LC50 (the source's name)
# NCI/ADR-RES = assay: Growth inhibition of human NCI/ADR-RES cells incubated for 48 hrs by sulforhodamine B assay; assay type: functional; settings: for CC50: read-out: LC50 (the source's name)
# CAKI-1 = assay: Growth inhibition of human Caki1 cells incubated for 48 hrs by sulforhodamine B assay; assay type: functional; settings: CAKI-1, 48 h; for CC50: read-out: LC50 (the source's name)
# UO-31 = assay: Growth inhibition of human UO31 cells assessed as cell growth at 0.3 uM incubated for 48 hrs by sulforhodamine B assay relative to control; assay type: functional; settings: UO-31, 48 h, read-out: Activity
# NCI-H23 = assay: Growth inhibition of human NCI-H23 cells incubated for 48 hrs by sulforhodamine B assay; assay type: functional; settings: NCI-H23, 48 h; for CC50: read-out: LC50 (the source's name)
# SW-620 = assay: Growth inhibition of human SW620 cells incubated for 48 hrs by sulforhodamine B assay; assay type: functional; settings: SW-620, 48 h
# NCI-H460 = assay: Growth inhibition of human NCI-H460 cells incubated for 48 hrs by sulforhodamine B assay; assay type: functional; settings: NCI-H460, 48 h; for CC50: read-out: LC50 (the source's name)
# OVCAR-5 = assay: Growth inhibition of human OVCAR5 cells incubated for 48 hrs by sulforhodamine B assay; assay type: functional; settings: OVCAR-5, 48 h; for CC50: read-out: LC50 (the source's name)
# [5] = molecular target: RAF proto-oncogene serine/threonine-protein kinase (Homo sapiens, UniProt P04049); assay: Inhibition of human c-RAF using MEK1 as substrate in presence of [33P]ATP by Hotspot assay
# Chain of RAF proto-oncogene serine/threonine-protein kinase (P04049 whole entry): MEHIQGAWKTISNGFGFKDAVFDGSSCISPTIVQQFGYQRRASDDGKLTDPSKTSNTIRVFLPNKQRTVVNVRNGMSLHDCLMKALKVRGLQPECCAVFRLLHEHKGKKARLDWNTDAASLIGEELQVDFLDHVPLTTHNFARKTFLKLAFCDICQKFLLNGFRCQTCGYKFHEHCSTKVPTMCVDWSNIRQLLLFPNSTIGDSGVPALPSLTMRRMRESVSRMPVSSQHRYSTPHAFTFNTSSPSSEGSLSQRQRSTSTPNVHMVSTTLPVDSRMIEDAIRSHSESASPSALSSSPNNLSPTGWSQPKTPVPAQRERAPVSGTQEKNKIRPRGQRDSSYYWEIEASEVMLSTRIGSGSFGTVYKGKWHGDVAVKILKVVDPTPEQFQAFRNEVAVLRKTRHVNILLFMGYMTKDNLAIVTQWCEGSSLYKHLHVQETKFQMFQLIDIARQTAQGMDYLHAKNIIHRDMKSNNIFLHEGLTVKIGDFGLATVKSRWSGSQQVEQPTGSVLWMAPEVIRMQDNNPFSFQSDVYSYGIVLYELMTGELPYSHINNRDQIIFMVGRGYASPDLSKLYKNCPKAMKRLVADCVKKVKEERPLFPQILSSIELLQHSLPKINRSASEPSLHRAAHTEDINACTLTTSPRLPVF
# T47D = assay: Growth inhibition of human T47D cells assessed as cell growth at 0.03 uM incubated for 48 hrs by sulforhodamine B assay relative to control; assay type: functional; settings: read-out: Activity
# SK-MEL-5 = assay: Growth inhibition of human SK-MEL-5 cells assessed as cell growth at 100 uM incubated for 48 hrs by sulforhodamine B assay relative to control; assay type: functional; settings: SK-MEL-5, 48 h, read-out: Activity
# SR = assay: Growth inhibition of human SR cells assessed as cell growth at 0.1 uM incubated for 48 hrs by sulforhodamine B assay relative to control; assay type: functional; settings: read-out: Activity
# SNB-19 = assay: Growth inhibition of human SNB19 cells assessed as cell growth at 100 uM incubated for 48 hrs by sulforhodamine B assay relative to control; assay type: functional; settings: SNB-19, 48 h, read-out: Activity
# SNB-75 = assay: Growth inhibition of human SNB75 cells assessed as cell growth at 1 uM incubated for 48 hrs by sulforhodamine B assay relative to control; assay type: functional; settings: SNB-75, 48 h, read-out: Activity
# OVCAR-8 = assay: Growth inhibition of human OVCAR8 cells assessed as cell growth at 0.01 uM incubated for 48 hrs by sulforhodamine B assay relative to control; assay type: functional; settings: OVCAR-8, 48 h, read-out: Activity
smiles,measurement,setting,value
COc1cc2cc(Oc3ccc(NC(=O)Nc4ccc(Cl)c(C(F)(F)F)c4)cc3)c(C)nc2cc1OC,GI50,MDA-MB-435,1.03 µM
same,TGI,MDA-MB-435,4.71 µM
same,CC50,MDA-MB-435,> 32.5 µM
same,GI50,A549,1 µM
same,TGI,A549,4.16 µM
same,CC50,A549,15.1 µM
same,GI50,HCT-116,0.994 µM
same,LC50 (50% lethal concentration),HCT-116,14 µM
same,TGI,HCT-116,3.84 µM
same,growth at 0.03 µM,KM12,93%
same,growth at 0.3 µM,ACHN,95%
same,GI50,TK-10,1.32 µM
same,TGI,TK-10,6.19 µM
same,CC50,TK-10,> 32.5 µM
same,GI50,MDA-MB-231,0.681 µM
same,TGI,MDA-MB-231,1.84 µM
same,CC50,MDA-MB-231,9.6 µM
same,GI50,SK-OV-3 [1],1.35 µM
same,TGI,SK-OV-3 [1],5.79 µM
same,CC50,SK-OV-3 [1],31.5 µM
same,growth at 30 µM,HOP-92 [2],-79%
same,growth at 30 µM,SK-OV-3 [3],-51%
same,growth at 0.03 µM,SK-MEL-2,97%
same,GI50,SF-539,1.96 µM
same,TGI,SF-539,8.39 µM
same,CC50,SF-539,> 32.5 µM
same,GI50,HOP-92 [4],0.682 µM
same,LC50,HOP-92 [4],10.3 µM
same,TGI,HOP-92 [4],2.05 µM
same,GI50,SF-295,0.899 to 0.9 µM
same,TGI,SF-295,2.91 µM
same,CC50,SF-295,22.2 µM
same,GI50,K562,1.11 µM
same,LC50 (concentration killing 50% of cells),K562,23.6 µM
same,TGI,K562,4.81 µM
same,GI50,NCI-H522,0.773 µM
same,TGI,NCI-H522,2.65 µM
same,CC50,NCI-H522,12.2 µM
same,GI50,U-251,1.03 µM
same,TGI,U-251,3.78 µM
same,CC50,U-251,12.6 µM
same,GI50,MCF7,1.08 µM
same,TGI,MCF7,3.88 µM
same,CC50,MCF7,15 µM
same,GI50,NCI/ADR-RES,1.06 µM
same,TGI,NCI/ADR-RES,4.91 µM
same,CC50,NCI/ADR-RES,> 32.5 µM
same,GI50,CAKI-1,0.782 µM
same,TGI,CAKI-1,2.54 µM
same,CC50,CAKI-1,25.2 µM
same,growth at 0.3 µM,UO-31,105%
same,GI50,NCI-H23,0.991 µM
same,TGI,NCI-H23,3.79 µM
same,CC50,NCI-H23,15.8 µM
same,GI50,SW-620,1.25 µM
same,LC50,SW-620,14 µM
same,TGI,SW-620,4.57 µM
same,GI50,NCI-H460,1.07 µM
same,TGI,NCI-H460,3.57 µM
same,CC50,NCI-H460,21.1 µM
same,GI50,OVCAR-5,1.93 µM
same,TGI,OVCAR-5,6.22 µM
same,CC50,OVCAR-5,17.4 µM
same,IC50,[5],0.1 µM
same,growth at 0.03 µM,T47D,94%
COc1cc2cc(Oc3ccc(NC(=O)Nc4ccc(Cl)c(Cl)c4)cc3)c(C)nc2cc1OC,GI50,MDA-MB-435,3.09 µM
same,TGI,MDA-MB-435,16.8 µM
same,CC50,MDA-MB-435,> 100 µM
same,GI50,A549,1.64 µM
same,TGI,A549,7.61 µM
same,CC50,A549,28.3 µM
same,GI50,HCT-116,2.26 µM
same,LC50 (50% lethal concentration),HCT-116,32.6 µM
same,TGI,HCT-116,10.5 µM
same,GI50,TK-10,3.46 µM
same,TGI,TK-10,9.18 µM
same,CC50,TK-10,43.3 µM
same,GI50,MDA-MB-231,2.46 µM
same,TGI,MDA-MB-231,12 µM
same,CC50,MDA-MB-231,34.6 µM
same,GI50,SK-OV-3 [1],7.56 µM
same,TGI,SK-OV-3 [1],26.4 µM
same,CC50,SK-OV-3 [1],84.8 µM
same,growth at 100 µM,SK-MEL-5,-93%
same,GI50,SF-539,5.18 µM
same,TGI,SF-539,22.3 µM
same,CC50,SF-539,88.8 µM
same,GI50,HOP-92 [4],2.04 µM
same,LC50,HOP-92 [4],14.2 µM
same,TGI,HOP-92 [4],4.88 µM
same,GI50,SF-295,1.96 µM
same,TGI,SF-295,6.08 µM
same,CC50,SF-295,67.7 µM
same,GI50,K562,3.32 µM
same,LC50 (concentration killing 50% of cells),K562,> 100 µM
same,TGI,K562,> 100 µM
same,GI50,NCI-H522,1.74 µM
same,TGI,NCI-H522,8.43 µM
same,CC50,NCI-H522,59.5 µM
same,GI50,U-251,2.19 µM
same,TGI,U-251,7.26 µM
same,CC50,U-251,26.5 µM
same,growth at 0.1 µM,SR,108%
same,GI50,MCF7,2.89 µM
same,TGI,MCF7,13.8 µM
same,CC50,MCF7,> 100 µM
same,GI50,NCI/ADR-RES,2.6 µM
same,TGI,NCI/ADR-RES,16.9 µM
same,CC50,NCI/ADR-RES,> 100 µM
same,growth at 100 µM,SNB-19,-41%
same,GI50,CAKI-1,2.12 µM
same,TGI,CAKI-1,6.65 µM
same,CC50,CAKI-1,49.5 µM
same,growth at 1 µM,SNB-75,83%
same,growth at 0.01 µM,OVCAR-8,101%
same,GI50,NCI-H23,3.36 µM
same,TGI,NCI-H23,15.9 µM
same,CC50,NCI-H23,76.3 µM
same,GI50,SW-620,4.24 µM
same,LC50,SW-620,60.9 µM
same,TGI,SW-620,15.6 µM
same,GI50,NCI-H460,2.46 µM
same,TGI,NCI-H460,10.1 µM
same,CC50,NCI-H460,45.8 µM
same,GI50,OVCAR-5,10.1 µM
same,TGI,OVCAR-5,34.3 µM
same,CC50,OVCAR-5,> 100 µM
same,IC50,[5],0.22 µM
